Columns and labels:
Assay type in all cases: biochemical
[1] = Inhibition of [α-32P]UTP incorporation by 3′-dATP in the transcription reaction (3′-dNTP incorporation rate); settings: compared with wild type T7 RNA polymerase
Method: Ribonucleotide (NTP) and 3′-deoxynucleotide (3′-dNTP) incorporation rates of the mutant T7 RNA polymerase purified in Example 7 were measured as follows.
pBluescript(KS+) plasmid (Stratagene) linearized by reaction with a restriction endonuclease, PvuII, was used as a template for the transcription reaction, and 250 μM each of ATP, CTP, GTP, and UTP, 2 mM of spermidine-(HCl)3, 5 mM of DTT, 40 mM Tris/HCl pH 8.0, 0.1 μl of [α-^32P] UTP (3000 Ci/mmole), and 25 units of the mutant T7 RNA polymerase F644Y/L665P/F667Y were also used for the reaction. For two kinds of reaction mixture (with or without 3′-dATP, final concentration was 100 μM), the reaction was performed at 37° C. for 60 minutes. The whole reaction mixture was spotted on DE81 paper (Whatman), washed three times with phosphate buffer, and dried. The DE81 paper was placed into a scintillation vial, and radioactivity was measured using a scintillation counter (Beckman) for each reaction. Degree of inhibition of the [α-^32P] UTP incorporation was calculated by comparing the values obtained with and without 3′-dATP based on the measured radioactivity. The relative activity obtained from calculated inhibition degree and defined as a relative value to the inhibition degree of the wild type T7 RNA polymerase normalized to 1.000 was shown in Table 1.
The inhibition degree was calculated by using the wild type T7 RNA polymerase, T7 RNA polymerase F644Y, L665P/F667Y obtained in Example 3, mutant T7 RNA polymerase F644Y/L665P, F782Y, F733Y, F646Y or Y639F constructed and purified in the same manner as in Examples 2 and 3 for the reaction instead of the above F644Y/L665P/F667Y mutant, and relative activities are shown in Table 1.
For example, it is meant that the mutant T7 RNA polymerase F644Y/L665P/F667Y is 5.58 times more likely to incorporate 31-dATP in comparison with the wild type enzyme.

[2] = tested on: plasmid vector pBluescriptKS(+) having T7 promoter; experiment: Sequencing reaction by the dye terminator method, linearized pBluescriptKS(+) template (Example 5); settings: four dye terminators; for sequence reading: 37° C., 1 hour, ABI 377; for peak intensity in sequencing reaction: in comparison with wild type T7 RNA polymerase
Method: Sequencing reaction by the dye terminator method was performed utilizing the purified mutant T7 RNA polymerases F644Y and L665P/F667Y, and the wild type T7 RNA polymerase as follows for comparison.
For the in vitro transcription reaction, the method of Melton, D. A. (1984, Nucleic Acids Res., 12:7035-7056) exemplified in Example 4 was used. More specifically, the reaction was performed in a total reaction volume of 10 μl containing a plasmid vector pBluescriptKS (+) having T7 promoter linearized by the reaction with a restriction endonuclease PvuII or ScaI as a template, 5-carboxyrhodamine 6G-labeled 3′-deoxyadenosine-5′-triphosphate, 5-carboxyrhodamine 110-labeled 3′-deoxyguanosine-5′-triphosphate, 5-carboxy-X-rhodamine-labeled 3′-deoxycytidine-5′-triphosphate, and 5-carboxytetramethylrhodamine-labeled 3′-deoxyuridine-5′triphosphate, which were dye terminators prepared according to the method described in W096/14434 as derivatives of 3′-DNTP, 500 μM of GTP and UTP, 250 μM of ATP and CTP, 8 mM of MgCl2, 2 mM of spermidine-(HCl)3, 5 mM of DTT, 40 mM of Tris/HCl pH 8.0 (BRL, Gibco) and 25 units of wild type T7 RNA polymerase (BRL, Gibco or Nippon Gene) or the mutant T7 RNA polymerase F644Y at 37° C. for 1 hour. Then, to remove the unreacted dye terminators remained in the reaction product, the transcription product was purified by gel filtration using Sephadex G-50 column (Pharmacia Biotec), and the purification product was evaporated to dryness using a centrifugal evaporator.
(§1) The dried reaction product was dissolved in 6 μl of formamide/EDTA/Blue dextran loading buffer according to the instruction manual Ver. 1.0 of ABI PRISM 377 DNA Sequencing System available from Perkin-Elmer Japan, and 2 μl of the solution was analyzed by ABI 377 DNA Sequencer and an analysis program using denatured gel for sequencing analysis which contained 6M urea/4% Long Ranger™ acrylamide solution (FMC).

[3] = In vitro transcription with a single dye terminator, sequence ladder analysed on ABI 377 (Example 4); settings: for incorporation efficiency for 3′-dCTP derivatives / peak intensities of the sequence ladders: compared with wild type; for peak intensities of the sequence ladders: FIG. 14 and FIG. 15
Method: 3′ -DNTP incorporation efficiency of the purified mutant T7 RNA polymerases F644Y and L665P/F667Y was compared with that of wild type T7 RNA polymerase as follows. In vitro transcription reaction was performed by, for example, a partially modified version of the method of Melton, D. A, [Nucleic Acids Res., 12:7035-7056 (1984)]. More specifically, the reaction was performed in a total volume of 10 μl containing a plasmid vector pBluescriptKS(+) having T7 promoter (Stratagene) linearized by the reaction with a restriction endonuclease PvuII or ScaI as a template, 150 μM of 5-carboxy-X-rhodamine-labeled 3′-deoxycytidine-5′-triphosphate which was a dye terminator prepared according to the method described in WO96/14434 as a derivative of 3′-dNTP, 500 μM of GTP and UTP, 250 μM of ATP and CTP, 8 mM Of MgCl2, 2 mM of spermidine-(HCl)3, 5 mM of DTT, 40 mM of Tris/HCl pH 8.0 (BRL, Gibco) and 25 units of wild type T7 RNA polymerase (BRL, Gibco or Nippon Gene) or the mutant T7 RNA polymerase F644Y or L665P/F667Y at 37° C. for 1 hour. Then, to remove the unreacted dye terminator remained in the reaction product, the transcription product was purified by gel filtration using Sephadex G-50 column (Pharmacia Biotec), and the purification product was evaporated to dryness using a centrifugal evaporator.
as §1
The peak intensities of the sequence ladders obtained by using F644Y and L665P/F667Y are shown in FIG. 14 and FIG. 15 with the peak intensity obtained by using wild type T7 RNA polymerase.

[4] = tested on: DNA containing T7 promoter; experiment: In vitro RNA synthesis activity (enzyme dilution method, plasmid containing T7 promoter as template); settings: compared with wild type T7 RNA polymerase
From the text: The T7 RNA polymerases introduced with mutations were purified, and their abilities of promoter sequence specific RNA synthesis and incorporation of ribonucleoside 5′-triphosphates including ATP, GTP, CTP, UTP and derivatives thereof, as well as 3′-dATP, 3′-dGTP, 3′-dCTP, 3′-dUTP and derivatives thereof were compared with those of wild type T7 RNA polymerase.
All of the mutant T7 RNA polymerases can be purified by principally the same method. The difference of mutation site may cause some difference in the expression level, and behavior in column chromatography. The purification method of mutant T7 RNA polymerase F644Y is exemplified hereinafter. The expression vector pT7RF644Y for F644Y was introduced into E. coli DH5∝, and the cells were cultured in a test tube containing LB culture medium containing antibiotic ampicillin. When the OD (600 nm) of the medium reached 0.4-0.6, isopropyl-β-thiogalactopyranoside (IPTG) was added to the culture to a final concentration of 0.4 mM, and the cultivation was further continued for additional 8 hours. Then, the E. coli cells were collected by centrifugation. Typically, 2 liters of culture medium affords 10 g of E. coli cells in wet weight. If the E. coli cells are not used immediately, they can be stored in a refrigerator at −20° C. Subsequent steps for purification of enzyme should be performed at a temperature lower than room temperature, preferably 0-5° C. unless otherwise indicated. The E. coli cells were washed with 10 times relative to the cell weight of a washing buffer (20 mM Tris-HCl, pH 8.1, 130 mM NaCl, 2 mM EDTANa2 at 25° C.), centrifuged again [5,000×g, 4° C., 10 minutes), suspended in 10 times in volume of a sonication buffer (50 mM Tris-HCl, pH 8.1, 100 mM NaCl, 0.1 mM EDTANa2, 5 mM dithiothreitol (DTT), 0.1 mM benzamidine, 30 μg/ml phenylmethylsulfonyl fluoride (PMSF), 10 μg/ml bacitracin], and sonicated by using Sonifier 450 (Branson) at 80W for more than 15 minutes to destroy the cells and reduce the viscosity of the cells. […]

In the case of “F644Y/F667Y: mutant T7 RNA polymerase with F644Y and F667Y mutations”, the “ability for incorporating 3′-dATP, 3′-dGTP, 3′-dCTP, 3′-dUTP and derivatives thereof” value (shortened to “ability for incorporating 3′-dATP”) [1] is reported as “almost equal to that of the F644Y/L665P/F667Y mutant”.
For “F644Y: T7 RNA polymerase in which F (phenylalanine) 644 was replaced with Y (tyrosine)”, the sequence reading [2] was “possible”, the “peak intensity in sequencing reaction” value [2] was “higher peak intensity with less fluctuation” and the “length of transcription product confirmed” value ([3]; 150 μM dye terminator, 37° C., 1 hour) was “about 700 bases”. The “length of sequence ladder relative to that afforded by the wild type T7 RNA polymerase” value ([3]; 150 μM dye terminator, 37° C., 1 hour, gel image FIG. 13) was 3 times, the “incorporation efficiency for 3′-dCTP derivatives” value [3] was “improved” and the “peak intensities of the sequence ladders” value [3] was “less fluctuation in comparison with the wild type, and the peak showed stronger signals”. For the same substance, the “ability for incorporating 3′-dATP” value [1] was “markedly improved”.
For “F667Y: T7 RNA polymerase in which F667 was replaced with Y”, the “ability for incorporating 3′-dATP” value [1] was “comparable to that of the L665P/F667Y mutant”.
In the case of “F733Y: T7 RNA polymerase in which F733 was replaced with Y”, the “ability for incorporating 3′-dATP” value [1] is reported as “slightly improved” and the RNA synthesis activity [4] is reported as “slightly decreased”.
In the case of “F782Y: T7 RNA polymerase in which F782 was replaced with Y”, the “ability for incorporating 3′-dATP” value [1] is reported as “slightly improved”.
For “F882Y: T7 RNA polymerase in which F882 was replaced with Y”, the RNA synthesis activity [4] was “markedly decreased”.
In the case of “L665P/F667Y: mutant T7 RNA polymerase with L665P and F667Y mutations”, the sequence reading [2] is reported as “possible”, the “peak intensity in sequencing reaction” value [2] is reported as “higher peak intensity with less fluctuation” and the “incorporation efficiency for 3′-dCTP derivatives” value [3] is reported as “improved”. The “peak intensities of the sequence ladders” value [3] was “less fluctuation in comparison with the wild type, and the peak showed stronger signals” and the “ability for incorporating 3′-dATP” value [1] was “markedly improved”.
In the case of “Wild type: wild type T7 RNA polymerase, 883 amino acid residues, purified from E. coli harboring pT7R or commercially available [reference compound]”, the sequence reading ([2]; listed as wild type T7RNA polymerase (WT)) is reported as “could not be correctly performed” and the RNA synthesis activity [4] is reported as “exhibited sufficient RNA synthesis activity”.

Source: patent US6867027B1, “RNA polymerase” (The Institute of Physical and Chemical Research, priority 1997, dated 2005)
